# Measured values reported in patent US8232288B2, “Substituted benzimidazoles, benzothiazoles and benzoxazoles” (Gruenenthal GmbH, priority 2009, dated 2012).
# Columns and labels:
# [1] = molecular target: T1, human B1R receptor (hB1R) (Homo sapiens, UniProt P46663); experiment: Functional investigation on the bradykinin receptor 1 (B1R), FLIPR Ca2+ assay, hB1R cells; type: cell-based
# T1 construct: expressed in transfected cells; host or cells: CHO K1 cells
# T1 sequence (P46663 1-353): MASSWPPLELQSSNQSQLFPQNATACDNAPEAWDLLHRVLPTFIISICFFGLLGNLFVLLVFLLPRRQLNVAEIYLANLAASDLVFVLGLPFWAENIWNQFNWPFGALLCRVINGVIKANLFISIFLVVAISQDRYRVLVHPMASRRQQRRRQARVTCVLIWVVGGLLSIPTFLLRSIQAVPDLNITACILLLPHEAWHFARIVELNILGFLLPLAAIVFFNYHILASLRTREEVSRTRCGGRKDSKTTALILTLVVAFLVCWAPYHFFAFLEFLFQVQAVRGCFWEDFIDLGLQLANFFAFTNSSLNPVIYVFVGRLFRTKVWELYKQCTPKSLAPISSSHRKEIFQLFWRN
# Protocol: (§1) The agonistic or antagonistic action of substances can be quantified on the bradykinin receptor 1 (B1R) of the human and rat species with ectopically expressing cell lines (CHO K1 cells) and with the aid of a Ca^2+-sensitive dyestuff (Fluo-4) in a fluorescent imaging plate reader (FLIPR). The figure in % activation is based on the Ca^2+ signal after addition of Lys-Des-Arg^9-bradykinin (0.5 nM) or Des-Arg^9-bradykinin (100 nM). Antagonists lead to a suppression of the Ca^2+ inflow after addition of the agonist. % inhibition compared with the maximum achievable inhibition is stated.
# (§2) The agonistic or antagonistic action of substances can be determined on the bradykinin receptor 1 (B1R) of the human and rat species with the following assay. In accordance with this assay, the Ca^2+ inflow through the channel is quantified with the aid of a Ca^2+-sensitive dyestuff (type Fluo-4, Molecular Probes Europe BV, Leiden Holland) in a fluorescent imaging plate reader (FLIPR, Molecular Devices, Sunnyvale, USA).
# (§3) Chinese hamster ovary cells (CHO K1 cells) transfected stably with the human B1R gene (hB1R cells) or the B1R gene of the rat (rB1R cells) are used. For functional studies, these cells are plated out on black 96-well plates with a clear base (BD Biosciences, Heidelberg, Germany or Greiner, Frickenhausen, Germany) in a density of 20,000-35,000 cells/well. The cells are left overnight at 37° C. and 5% CO2 in culture medium (hB1R cells: Nutrient Mixture Ham's F12, Gibco Invitrogen GmbH, Karlsruhe, Germany or DMEM, Sigma-Aldrich, Taufkirchen, Germany; rB1R cells: D-MEM/F12, Gibco Invitrogen GmbH, Karlsruhe, Germany) with 10 vol. % FBS (foetal bovine serum, Gibco Invitrogen GmbH, Karlsruhe, Germany or PAN Biotech GmbH, Aidenbach, Germany). On the following day, the cells are loaded for 60 min at 37° C. with 2.13 μM Fluo-4 (Molecular Probes Europe BV, Leiden Holland) in HBSS buffer (Hank's buffered saline solution, Gibco Invitrogen GmbH, Karlsruhe, Germany) with 2.5 mM probenecid (Sigma-Aldrich, Taufkirchen, Germany) and 10 mM HEPES (Sigma-Aldrich, Taufkirchen, Germany). The plates are then washed 2× with HBSS buffer, and HBSS buffer which additionally contains 0.1% BSA (bovine serum albumin; Sigma-Aldrich, Taufkirchen, Germany), 5.6 mM glucose and 0.05% gelatine (Merck KGaA, Darmstadt, Germany) is added. After a further incubation of 20 minutes at room temperature, the plates are inserted into the FLIPR for the Ca^2+ measurement.
# (§4) Alternatively, the plates are washed with buffer A (15 mM HEPES, 80 mM NaCl, 5 mM KCl, 1.2 mM CaCl2, 0.7 mM MgSO4, 2 g/l glucose, 2.5 mM probenecid), buffer A is added and the plates are loaded with 2.5 μM Fluo-4 and 0.025% Pluronic F127 (Sigma-Aldrich, Taufkirchen, Germany). Thereafter, the cells are washed 2× with buffer A and incubated for 30 minutes at room temperature with buffer A, which additionally contains 0.05% BSA and 0.05% gelatine, and thereafter inserted into the FLIPR for the Ca^2+ measurement.
# (§5) The Ca^2+-dependent fluorescence is measured here before and after addition of substances (λex=488 nm, λem=540 nm). Quantification is by measurement of the highest fluorescence intensity (FC, fluorescence counts) over time.
# (§6) The FLIPR protocol consists of 2 additions of substance. Test substances (10 μM) are first pipetted on to the cells and the Ca^2+ inflow is compared with the control (hB1R: Lys-Des-Arg^9-bradykinin>=50 nM; rB1R: Des-Arg^9-bradykinin 10 μM). This gives the result in % activation based on the Ca^2+ signal after addition of Lys-Des-Arg^9-bradykinin (>=50 nM) or Des-Arg^9-bradykinin (10 μM). After incubation for 10-20 minutes, Lys-Des-Arg^9-bradykinin (hB1R) or Des-Arg^9-bradykinin (rB1R) in the concentration of the EC80 is applied and the inflow of Ca^2+ is likewise determined. Antagonists lead to a suppression of the Ca^2+ inflow. % inhibition compared with the maximum achievable inhibition is calculated.
# (§7) In order to determine the IC50 value, the substances are added in various concentrations. […]
# [2] = molecular target: T2, B1R receptor of the rat (rB1R) (Rattus norvegicus, UniProt P97583); experiment: Functional investigation on the bradykinin receptor 1 (B1R), FLIPR Ca2+ assay, rB1R cells; type: cell-based
# T2 construct: expressed in transfected cells; host or cells: CHO K1 cells
# T2 sequence (P97583 1-337): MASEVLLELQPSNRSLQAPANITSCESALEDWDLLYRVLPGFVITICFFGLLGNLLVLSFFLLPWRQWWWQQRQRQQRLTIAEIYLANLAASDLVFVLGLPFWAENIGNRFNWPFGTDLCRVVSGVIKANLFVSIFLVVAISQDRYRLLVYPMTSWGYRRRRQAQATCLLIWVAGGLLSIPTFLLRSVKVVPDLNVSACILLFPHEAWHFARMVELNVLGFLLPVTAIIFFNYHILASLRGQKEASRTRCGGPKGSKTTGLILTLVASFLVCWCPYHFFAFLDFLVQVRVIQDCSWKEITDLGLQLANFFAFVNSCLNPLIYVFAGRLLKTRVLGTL
# Protocol: as §1, §2, §3, §4, §5, §6, §7
Compound,inhibition at 10 µM [1] [%],inhibition at 10 µM [2] [%]
"COc1cc(C)c(S(=O)(=O)N(Cc2nc3cccc(C(=O)N4CCC5(CC4)CCN(c4ccncc4)CC5)c3[nH]2)C2CC2)c(C)c1 [I_14, N-cyclopropyl-4-methoxy-2,6-dimethyl-N-[[7-(9-pyridin-4-yl-3,9-diazaspiro[5.5]undecane-3-carbonyl)-1H-benzoimidazol-2-yl]-methyl]-benzenesulfonic acid amide]",99,95
"COc1cc(C)c(S(=O)(=O)N(C)Cc2nc3cccc(CN4CCC5(CC4)CCN(c4ccncc4)CC5)c3[nH]2)c(C)c1 [I_15, 4-methoxy-N,2,6-trimethyl-N-[[7-[(9-pyridin-4-yl-3,9-diazaspiro[5.5]undecan-3-yl)-methyl]-1H-benzoimidazol-2-yl]-methyl]-benzenesulfonic acid amide]",100,103
"CN(Cc1nc2cccc(C(=O)N3CCC4(CC3)CCN(c3ccncc3)CC4)c2[nH]1)C(=O)c1ccc(Cl)s1 [I_16, 5-chloro-N-methyl-N-[[7-(9-pyridin-4-yl-3,9-diazaspiro[5.5]undecane-3-carbonyl)-1H-benzoimidazol-2-yl]-methyl]-thiophene-2-carboxylic acid amide]",91,105
"Cc1ccc(Cl)c(S(=O)(=O)N(C)Cc2nc3cccc(C(=O)N4CCC5(CC4)CCN(c4ccncc4)CC5)c3[nH]2)c1Cl [I_17, 2,6-dichloro-N,3-dimethyl-N-[[7-(9-pyridin-4-yl-3,9-diazaspiro[5.5]undecane-3-carbonyl)-1H-benzoimidazol-2-yl]-methyl]-benzenesulfonic acid amide]",95,24
"COc1cc(C)c(S(=O)(=O)N2CCCCC2c2nc3cccc(C(=O)N4CCC5(CC4)CCN(c4ccncc4)CC5)c3[nH]2)c(C)c1 (stereo not shown) [I_18, [2-[1-[(4-methoxy-2,6-dimethyl-phenyl)sulfonyl]-piperidin-2-yl]-3H-benzoimidazol-4-yl]-(9-pyridin-4-yl-3,9-diazaspiro[5.5]undecan-3-yl)-methanone]",97,49
"COc1cc(C)c(S(=O)(=O)N2CCCC2c2nc3cccc(C(=O)N4CCC5(CC4)CCN(c4ccncc4)CC5)c3[nH]2)c(C)c1 (stereo not shown) [I_19, [2-[1-[(4-methoxy-2,6-dimethyl-phenyl)sulfonyl]-pyrrolidin-2-yl]-3H-benzoimidazol-4-yl]-(9-pyridin-4-yl-3,9-diazaspiro[5.5]undecan-3-yl)-methanone]",100,76
"COc1cc(C)c(S(=O)(=O)N(C)Cc2nc3c(C(=O)N4CCC5(CC4)CCN(c4ccncc4)CC5)cccc3n2C)c(C)c1 [I_20, 4-methoxy-N,2,6-trimethyl-N-[[1-methyl-4-(9-pyridin-4-yl-3,9-diazaspiro[5.5]undecane-3-carbonyl)-1H-benzoimidazol-2-yl]-methyl]-benzenesulfonic acid amide]",98,30
"COc1cc(C)c(S(=O)(=O)N(C)Cc2nc3cccc(CC(=O)N4CCC5(CC4)CCN(c4ccncc4)CC5)c3[nH]2)c(C)c1 [I_21, 4-methoxy-N,2,6-trimethyl-N-[[7-[2-oxo-2-(9-pyridin-4-yl-3,9-diazaspiro[5.5]undecan-3-yl)-ethyl]-1H-benzoimidazol-2-yl]-methyl]-benzenesulfonic acid amide]",99,55
"COc1cc(C)c(S(=O)(=O)N(C)Cc2nc3ccc(C(=O)N4CCC5(CC4)CCN(c4ccncc4)CC5)cc3[nH]2)c(C)c1 [I_22, 4-methoxy-N,2,6-trimethyl-N-[[6-(9-pyridin-4-yl-3,9-diazaspiro[5.5]undecane-3-carbonyl)-1H-benzoimidazol-2-yl]-methyl]-benzenesulfonic acid amide]",100,103
"Cc1cccc(Cl)c1S(=O)(=O)N(C)Cc1nc2ccc(C(=O)N3CCC4(CC3)CCN(c3ccncc3)CC4)cc2[nH]1 [I_23, 2-chloro-N,6-dimethyl-N-[[6-(9-pyridin-4-yl-3,9-diazaspiro[5.5]undecane-3-carbonyl)-1H-benzoimidazol-2-yl]-methyl]-benzenesulfonic acid amide]",100,101
"CN(Cc1nc2ccc(C(=O)N3CCC4(CC3)CCN(c3ccncc3)CC4)cc2[nH]1)S(=O)(=O)c1ccccc1C(F)(F)F [I_24, N-methyl-N-[[6-(9-pyridin-4-yl-3,9-diazaspiro[5.5]undecane-3-carbonyl)-1H-benzoimidazol-2-yl]-methyl]-2-(trifluoromethyl)-benzenesulfonic acid amide]",100,102
"CN(Cc1nc2ccc(C(=O)N3CCC4(CC3)CCN(c3ccncc3)CC4)cc2[nH]1)S(=O)(=O)c1cccc2ccccc12 [I_25, N-methyl-N-[[6-(9-pyridin-4-yl-3,9-diazaspiro[5.5]undecane-3-carbonyl)-1H-benzoimidazol-2-yl]-methyl]-naphthalene-1-sulfonic acid amide]",95,96
"COc1cc(C)c(S(=O)(=O)N(C)CCc2nc3ccc(C(=O)N4CCC5(CC4)CCN(c4ccncc4)CC5)cc3[nH]2)c(C)c1 [I_26, 4-methoxy-N,2,6-trimethyl-N-[2-[6-(9-pyridin-4-yl-3,9-diazaspiro[5.5]undecane-3-carbonyl)-1H-benzoimidazol-2-yl]-ethyl]-benzenesulfonic acid amide]",98,103
"COc1cc(C)c(S(=O)(=O)N(C)Cc2nc3cccc(C(=O)N4CCC5(CC4)CC(c4ccncc4)=NO5)c3[nH]2)c(C)c1 [I_27, 4-methoxy-N,2,6-trimethyl-N-[[7-(3-pyridin-4-yl-1-oxa-2,8-diazaspiro[4.5]dec-2-ene-8-carbonyl)-1H-benzoimidazol-2-yl]-methyl]-benzenesulfonic acid amide]",93,94
